Assay results as given in article PMC12135066, “Design and Preclinical Evaluation of Novel uPAR-Targeting Radiopeptides Modified with an Albumin-Binding Entity” (Molecular Pharmaceutics, 2025).

Columns and labels:
human uPAR = target: T1, human uPAR (Homo sapiens, UniProt Q03405); assay: uPAR-binding affinity (KD values), saturation experiments with HEK-uPAR cells; conditions: saturation binding on HEK-uPAR cells, on ice (4 °C) 1 h, 1–1600 nM radiopeptide, ± AE105 40 µM; γ-counter; nonlinear regression; average ± SD, n=3
T1 construct: host or cells: HEK cells (HEK-uPAR)
Method: To determine the uPAR-binding affinity of the radiopeptides, saturation experiments were performed using HEK-uPAR cells in 48-well plates (Supporting Information). The cells were incubated on ice for 1 h in the presence or absence of excess AE105 (final concentration of 40 μM) together with the respective radiopeptide at a concentration range of 1–1600 nM. After rinsing the cells with PBS, they were lysed with an aqueous NaOH solution (1 M, 600 μL), transferred to radioimmunoassay tubes, and measured in a γ-counter (1480 Wizard, PerkinElmer). The K D values were determined by plotting the specific binding (values of samples incubated without AE105 minus the values of samples incubated with AE105) against the molar concentration of the added peptide. A nonlinear regression analysis was performed using GraphPad Prism software (version 8.3.1). The results were expressed as average ± SD of n = 3 independently performed experiments. […]
7. Determination of uPAR-Binding Affinity (KD Values)
Purpose: The uPAR-binding affinity of the radiopeptides were determined to investigate the impact of structural changes on the receptor binding.
Methods: HEK-uPAR cells were seeded in poly-D-lysine-coated 48-well plates (0.25 × 10 6 in 0.5 mL per well) using DMEM cell culture medium with supplements. The cells were incubated at 37 °C and 5% CO2 overnight to allow adhesion and growth. After removing the supernatant, the well plates with HEK-uPAR cells were placed on ice to prevent internalization of the radiopeptides. The cells were rinsed with cold PBS (0.5 mL, pH 7.4) followed by the addition of DMEM cell culture medium without supplements (450 µL/well) in the presence or absence of AE105 ( final concentration 40 µM) as a receptor-blocking agent. The radiopeptides (5 MBq/nmol) were diluted in PBS to obtain peptide concentrations ranging from 10 ‒16000 nM. From each dilution, 50 µL were added to each well to obtain final peptide concentrations of 1 nM to 1600 nM. The cells were incubated at 4 °C for 1 h before rinsing twice with PBS (0.5 mL, pH 7.4). The cells were lysed using an aqueous NaOH solution (1 M, 600 µL) and the lysates were transferred to RIA tubes for counting the activity in a γ-counter (1480 Wizard, PerkinElmer) . The KD values were determined by plotting specific binding (total binding minus unspecific binding) against the molar concentration of the added radiopeptide using GraphPad Prism (version 8.3.1). the results were then expressed as average K D values ± SD of n = 3 independent […]
Results: The results are reported in the main article.

[1] = Stability of the radiopeptides in mouse blood plasma; conditions: mouse
Method: (§1) The radiopeptides (50 MBq/nmol) stabilized with L-ascorbic acid were diluted in mouse and human blood plasma and incubated at 37 °C. Aliquots were taken after 1, 4, and 24 h and analyzed using reversed-phase thin-layer chromatography (TLC) (Supporting Information).
(§2) aProduct peak expressed as percentage of the sum of integrated peak areas of the entire chromatogram relative to
(§3) the value obtained immediately after labeling (set as 100%), average ± standard deviation (SD) (n=3).
(§4) Stability of the Radiopeptides in Mouse and Human Blood Plasma
(§5) Purpose: The stability of the radiopeptides was assessed in mouse and human blood plasma as an
indication for their in vivo stability.
(§6) Methods: The radiopeptides (50 MBq/nmol) stabilized with L-ascorbic acid were diluted in mouse
(§7) blood plasma (Lot: 32321, Rockland Immunochemicals Inc., U.S.A.) or in human blood plasma
(§8) (Stiftung Blutspende SRK Aargau -Solothurn, Switzerland) at a concentration of 10 MBq/200 µL and
(§9) incubated at 37 °C over a 24 h time period. Control samples were prepared by diluting the radiopeptides
(§10) in saline at the same activity concentration. Aliquots of each dilution were taken after 1 h, 4 h, and 24 h
(§11) (2 µL, ~100 kBq) and investigated employing thin layer chromatography (TLC) methods on reversed-
(§12) phase TLC plates (MERCK Analytical Chromatography, TLC Silica gel 60 RP -18 F254s) as stationary
(§13) phase and a 3/7 (v/v) mixture of acetonitrile /citrate buffer (0.1 M, pH 5.5) as mobile phase. A dilution
(§14) of [177Lu]LuCl3/HCl 0.04 M (10 MBq/200 µL) was added on each TLC plate. The developed and dried
(§15) TLC plates were exposed to a phosphor screen (Super resolution screen PSR10450013, PerkinElmer)
(§16) for 1 min. The screen was read with a Cyclone Plus phosphor imager (PerkinElmer) and the peak
(§17) quantification was performed using OptiQuant Software (version 5.0).

[2] = Stability of the radiopeptides in human blood plasma; conditions: human
Method: as §1, §2, §3, §4, §5
indication for their in vivo stability.
as §6, §7, §8, §9, §10, §11, §12, §13, §14, §15, §16, §17

[3] = n-Octanol/PBS distribution coefficients (logD values); conditions: n-octanol/PBS pH 7.4, pH 7.4
Method: The radiopeptides diluted in phosphate-buffered saline (PBS) pH 7.4 (25 μL, ∼0.5 MBq, 0.01 nmol) were added to a mixture of PBS pH 7.4 (1475 μL) and n-octanol (1500 μL). The vials were vortexed vigorously for 1 min, followed by centrifugation (560 rcf, 6 min) for phase separation. Aliquots were taken from each phase and measured in a γ-counter (1480 Wizard, PerkinElmer). The distribution coefficients were calculated as the logarithmic value of the ratio of counts per minute (cpm) measured in the n-octanol phase relative to the cpm measured in the PBS phase.
Methods: The logD value of all radiopeptides was determined in a mixture of n-octanol and phosphate
buffered saline (PBS) pH 7.4 using phase separation followed by liquid-liquid extraction.
polystyrene radioimmunoassay (RIA) tubes were prepared for each radiopeptide with 1.5 mL n-octanol
and 1.475 mL PBS pH 7.4. The RIA tubes were rigorously vortexed and subsequently let to stand so
that the phase separation could take place. The radiopeptides (50 MBq/nmol) were diluted with PBS
pH 7.4 to obtain an activity concentration of 10 MBq/0.5 mL. A volume of 25 μL of these solutions
was added to each RIA tube (25 µL, ~0.5 MBq, 0.01 nmol) followed by vortexing for 1 min.
separation was achieved by centrifugation at 560 rcf for 6 min. The activity in the n-octanol and PBS
phase, respectively, was measured in a γ-counter (Wallac Wizard 1480, PerkinElmer).
coefficients were calculated as the logarithm of the ratio of counts per minute (cpm) measured in the n-
octanol phase relative to the cpm measured in the PBS pH 7.4 phase.
as described above three independent times for each radiopeptide.

[4] = Biodistribution studies in HEK-uPAR xenograft-bearing nude mice; conditions: female, CD1/nude, mouse, 5 MBq (0.5 nmol), total radioactivity, 5 MBq, 0.5 nmol, decay-corrected, average ± SD, n=3 animals; for tissue uptake at 4 h: 4 h p.i.; for tissue uptake at 24 h: 24 h p.i.
[5] = Radiolytic stability of the radiopeptides in saline with L-ascorbic acid; conditions: 50 MBq/nmol in saline, 150 MBq/300 µL, L-ascorbic acid (3 mg, 20 µL) and NaOAc (0.5 M, 30 µL), HPLC, product peak relative to t=0 (100%), average ± SD, n=3
[6] = test system: mouse serum albumin (MSA); assay: Albumin-binding properties in mouse blood plasma (ultrafiltration assay); conditions: ultrafiltration (Amicon, 10 kDa), mouse blood plasma dilutions in PBS pH 7.4, [MSA]-to-[radiopeptide] 0.01–12500, 0.006 nmol, 37 °C 30 min, γ-counter; inverse ratio of B50, [177Lu]Lu-uPAR-01 set as 1.00; average curve of 3 experiments
Method: (§18) The relative albumin-binding affinities of the radiopeptides in mouse and human blood plasma were determined using an ultrafiltration assay with Amicon centrifugal filters (cutoff of 10 kDa; Merck Millipore), as previously reported (Supporting Information). A fixed amount of the respective radiopeptide (15 μL, ∼300 kBq, 0.006 nmol) was added to a defined volume (150 μL) of mouse and human blood plasma dilutions to obtain [mouse serum albumin (MSA)]-to-[radiopeptide] and [human serum albumin (HSA)]-to-[radiopeptide] molar concentration ratios of 0.01–12,500 and 0.01–20,000, respectively. The data were analyzed using a semilogarithmic Hill plot with the maximum binding set as 100% (GraphPad Prism software, version 8.3.1).
(§19) Determination of the Albumin-Binding Properties
(§20) Purpose: The radiopeptides were investigated with regard to their albumin-binding capabilities in vitro
(§21) as a measure to predict blood retention in vivo.
(§22) Methods: The relative albumin-binding affinity of the radiopeptides in mouse blood plasma (Rockland
(§23) Immunochemicals, Inc., U.S.A.) and human blood plasma (Stiftung Blutspende SRK Aargau-
(§24) Solothurn, Switzerland) were determined using an ultrafiltration method. The amount of mouse serum
(§25) albumin (MSA) and human serum albumin (HSA) in mouse and human blood plasma was defined as
(§26) 550 μM and 800 μM, respectively, based on measurements using a dry chemistry analyzer (DRI-CHEM
(§27) 4000i, FUJIFILM, Japan). A fixed amount of radiopeptide (50 MBq/nmol, ~300 kBq, 15 μL, 0.006
(§28) nmol) was added to a defined volume (150 μL) of mouse and human blood plasma and various dilutions
(§29) thereof in PBS pH 7.4, resulting in defined [MSA]-to-[radiopeptide] or [HSA]-to-[radiopeptide] molar
(§30) concentration ratios ranging from 0.01 ‒12500 and 0.01‒20000, respectively, followed by incubation of
(§31) the samples at 37 °C for 30 min. Ice-cold PBS (150 µL, pH 7.4) was added before loading the blood
(§32) plasma samples on Amicon centrifugal filters (cut -off of 10 kDa; Merck Millipore) followed by
(§33) centrifugation (14000 rcf, 30 min, 4 °C) to allow the separation of the plasma protein -bound from the
(§34) plasma-unbound (free) fractions of each sample. The inserts of the filter devices were inverted and centrifuged at 200 rcf for 3 min to recover the protein -bound radiopeptide. The activity in the filtrate
(§35) and filter unit was measured in a γ-counter (1480 Wizard, PerkinElmer) and the counts were combined
(§36) assuming that the fraction retained in the filter membrane was not bound to proteins. The protein -bound
(§37) fraction was expressed as percentage of the whole activity (i.e. plasma protein -bound activity, activity
(§38) measured in the filtrate and activity measured in the filter (set as 100%) ). The data were analyzed using
(§39) a semi-logarithmic plot assuming a maximum binding of 100%. The Hill equation was fitted to the data
(§40) points and the half -maximum binding ( B50) based on the average curve obtained from three independent
(§41) experiments (GraphPad Prism software, version 8.3 .1). The relative albumin-binding affinit ies of the
(§42) reference compound, whose relative binding affinity was set as 1.0. The results were presented as the
(§43) B50 value obtained from the average curve from 3 independent experiments.

[7] = test system: human serum albumin (HSA); assay: Albumin-binding properties in human blood plasma (ultrafiltration assay); conditions: ultrafiltration (Amicon, 10 kDa), human blood plasma dilutions in PBS pH 7.4, [HSA]-to-[radiopeptide] 0.01–20000, 0.006 nmol, 37 °C 30 min, γ-counter; inverse ratio of B50, [177Lu]Lu-uPAR-01 set as 1.00; average curve of 3 experiments
Method: as §18, §19, §20, §21, §22, §23, §24, §25, §26, §27, §28, §29, §30, §31, §32, §33, §34, §35, §36, §37, §38, §39, §40, §41, §42, §43

[8] = HEK-uPAR xenograft, HEK-uPAR xgft

T1 sequence (Q03405 23-335): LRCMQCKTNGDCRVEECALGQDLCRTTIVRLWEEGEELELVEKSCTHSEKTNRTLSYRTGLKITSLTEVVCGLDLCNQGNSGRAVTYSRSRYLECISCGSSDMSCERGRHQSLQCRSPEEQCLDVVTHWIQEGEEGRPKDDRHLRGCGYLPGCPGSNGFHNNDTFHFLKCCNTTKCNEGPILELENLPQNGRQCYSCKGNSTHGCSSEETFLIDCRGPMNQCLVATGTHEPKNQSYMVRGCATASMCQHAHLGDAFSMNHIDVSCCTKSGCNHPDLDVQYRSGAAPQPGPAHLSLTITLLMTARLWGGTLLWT

## CC(C)C[C@H](NC(=O)[C@H](Cc1ccc(O)cc1)NC(=O)[C@@H](CCCNC(=N)N)NC(=O)[C@@H](CO)NC(=O)[C@H](Cc1ccccc1)NC(=O)[C@H](CC1CCCCC1)NC(=O)[C@H](CC(=O)O)NC(=O)[C@H](CCCCNC(=O)CCCc1ccc(I)cc1)NC(=O)CN1CCN(CC(=O)O)CCN(CC(=O)O)CCN(CC(=O)O)CC1)C(=O)N[C@@H](Cc1c[nH]c2ccccc12)C(=O)N[C@@H](CO)C(N)=O [[^177Lu]Lu-uPAR-01, metal not drawn]
Human uPAR
  Kd: 48 ± 6 nM
[1]; blood plasma
  remaining at 1 h, 10 MBq/200 µL: 100%
  remaining at 24 h, 10 MBq/200 µL: 99 ± 1%
[1]; mouse blood plasma
  remaining at 4 h, 10 MBq/200 µL: 100%
[2]; blood plasma
  remaining at 1 h, 10 MBq/200 µL: 100%
  remaining at 24 h, 10 MBq/200 µL: 99 ± 1%
[2]; human blood plasma
  remaining at 4 h, 10 MBq/200 µL: 99 ± 2%
[3]
  logD: 0.78 ± 0.05
[4]; [8]
  tissue uptake at 4 h: 9.2 ± 0.2 %ID/g
  tissue uptake at 24 h: 5.8 ± 0.6 %ID/g
[4]; blood
  tissue uptake at 4 h: 16 ± 1 %ID/g
  tissue uptake at 24 h: 4.5 ± 0.2 %ID/g
[4]; bone
  tissue uptake at 4 h: 1.9 ± 0.1 %ID/g
  tissue uptake at 24 h: 0.81 ± 0.01 %ID/g
[4]; brain
  tissue uptake at 4 h: 0.32 ± 0.02 %ID/g
  tissue uptake at 24 h: 0.1 ± 0.01 %ID/g
[4]; heart
  tissue uptake at 4 h: 5.7 ± 0.2 %ID/g
  tissue uptake at 24 h: 1.9 ± 0.1 %ID/g
[4]; intestines
  tissue uptake at 4 h: 2.3 ± 0.3 %ID/g
  tissue uptake at 24 h: 0.94 ± 0.04 %ID/g
[4]; kidneys
  tissue uptake at 4 h: 5.6 ± 0.2 %ID/g
  tissue uptake at 24 h: 4.2 ± 0.8 %ID/g
[4]; liver
  tissue uptake at 4 h: 6.4 ± 0.3 %ID/g
  tissue uptake at 24 h: 1.8 ± 0.2 %ID/g
[4]; lung
  tissue uptake at 4 h: 9.4 ± 1 %ID/g
  tissue uptake at 24 h: 3.3 ± 0.3 %ID/g
[4]; muscle
  tissue uptake at 4 h: 1.4 ± 0.2 %ID/g
  tissue uptake at 24 h: 0.57 ± 0.07 %ID/g
[4]; pancreas
  tissue uptake at 4 h: 2 ± 0.3 %ID/g
  tissue uptake at 24 h: 0.77 ± 0.04 %ID/g
[4]; salivary glands
  tissue uptake at 4 h: 3.6 ± 0.3 %ID/g
  tissue uptake at 24 h: 1.5 ± 0.1 %ID/g
[4]; spleen
  tissue uptake at 4 h: 2.7 ± 0.1 %ID/g
  tissue uptake at 24 h: 1.7 ± 0.2 %ID/g
[4]; stomach
  tissue uptake at 4 h: 2 ± 0.1 %ID/g
  tissue uptake at 24 h: 0.78 ± 0.08 %ID/g
[5]; 1 h
  radiolytic stability, % intact radiopeptide: 100 ± 0%
[5]; 4 h
  radiolytic stability, % intact radiopeptide: 100 ± 0%
[5]; 24 h
  radiolytic stability after 24 h, intact radiopeptide [%]: 93 ± 4%
[6]
  Relative albumin-binding affinity, mouse blood plasma: 1.00
[7]
  Relative albumin-binding affinity, human blood plasma: 1.00
